Test results as given in the supplement of paper PMC9663587.

Tests used:
[1] = compound: CCN1CCN(Cc2ccc(Nc3ncc(F)c(-c4cc(F)c5nc(C)n(C(C)C)c5c4)n3)nc2)CC1; experiment: increase in dead-cell fraction, 72 h; higher = more death;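 further: breast cancer cell lines in 384-well plates, stained with Hoechst plus LIVE/DEAD far red dye and imaged, cells above an LDR intensity threshold counted dead, Hoechst-negative corpses included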
[2] = compound: CCOc1cc2ncc(C#N)c(Nc3ccc(OCc4ccccn4)c(Cl)c3)c2cc1NC(=O)/C=C/CN(C)C [Neratinib/HKI272]; experiment: as above
[3] = compound: CC(=O)c1c(C)c2cnc(Nc3ccc(N4CCNCC4)cn3)nc2n(C2CCCC2)c1=O; experiment: as above
[4] = compound: CN(C)C(=O)c1cc2cnc(Nc3ccc(N4CCNCC4)cn3)nc2n1C1CCCC1 [LEE011/Ribociclib]; experiment: as above
[5] = compound: T1, CN1CC[C@H](c2c(O)cc(O)c3c(=O)cc(-c4ccccc4Cl)oc23)[C@H](O)C1 [Flavopiridol]; experiment: as above
[6] = compound: CCc1cnn2c(NCc3ccc[n+]([O-])c3)cc(N3CCCC[C@H]3CCO)nc12; experiment: as above
[7] = compound: CC(=O)c1c(C)c2cnc(Nc3ccc(N4CCN(CCOCCOCCOCCNC(=O)COc5cccc6c5C(=O)N(C5CCC(=O)NC5=O)C6=O)CC4)cn3)nc2n(C2CCCC2)c1=O [BSJ-03-123]; experiment: as above
[8] = compound: T2, CN(C)C/C=C/C(=O)Nc1ccc(C(=O)Nc2cccc(Nc3ncc(Cl)c(-c4c[nH]c5ccccc45)n3)c2)cc1 [THZ1]; experiment: as above
[9] = compound: CN(C)C/C=C/C(=O)Nc1ccc(C(=O)N2CCC[C@@H](Nc3ncc(Cl)c(-c4c[nH]c5ccccc45)n3)C2)cc1 [THZ531]; experiment: GR value, 72 h; higher = faster growth (1 = untreated, <0 = killing);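 further: breast cancer and non-malignant breast epithelial lines, nine half-log doses, viable cells counted by Hoechst and LIVE/DEAD dye imaging versus time-zero plates and DMSO controls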
[10] = compound: CC(=O)c1c(C)c2cnc(Nc3ccc(N4CCNCC4)cn3)nc2n(C2CCCC2)c1=O; experiment: as above
[11] = compound: T1, Flavopiridol; experiment: as above
[12] = compound: T2, THZ1; experiment: as above

MCF7
increase in dead-cell fraction ([1]; 0.001 µM): 0.0009 | increase in dead-cell fraction ([1]; 0.003162 µM): 0.0022 | increase in dead-cell fraction ([1]; 0.01 µM): 0.0141 | increase in dead-cell fraction ([1]; 0.03162 µM): 0.0241 | increase in dead-cell fraction ([1]; 0.1 µM): 0.0305 | increase in dead-cell fraction ([1]; 0.3162 µM): 0.0363 | increase in dead-cell fraction ([1]; 1 µM): 0.0543 | increase in dead-cell fraction ([1]; 3.162 µM): 0.277 | increase in dead-cell fraction ([1]; 10 µM): 0.373 | increase in dead-cell fraction ([2]; 0.0003162 µM): 0 | increase in dead-cell fraction ([2]; 0.001 µM): 0.0036 | increase in dead-cell fraction ([2]; 0.003162 µM): 0.0018 | increase in dead-cell fraction ([2]; 0.01 µM): 0.0034 | increase in dead-cell fraction ([2]; 0.03162 µM): 0.0035 | increase in dead-cell fraction ([2]; 0.1 µM): 0.0017 | increase in dead-cell fraction ([2]; 0.3162 µM): 0.0089 | increase in dead-cell fraction ([2]; 1 µM): 0.0125 | increase in dead-cell fraction ([2]; 3.162 µM): 0.164 | increase in dead-cell fraction ([3]; 0.0003162 µM): -0.0006 | increase in dead-cell fraction ([3]; 0.001 µM): -0.0004 | increase in dead-cell fraction ([3]; 0.003162 µM): 0.002 | increase in dead-cell fraction ([3]; 0.01 µM): 0.0051 | increase in dead-cell fraction ([3]; 0.03162 µM): 0.0099 | increase in dead-cell fraction ([3]; 0.1 µM): 0.0195 | increase in dead-cell fraction ([3]; 0.3162 µM): 0.022 | increase in dead-cell fraction ([3]; 1 µM): 0.0362 | increase in dead-cell fraction ([3]; 3.162 µM): 0.0308 | increase in dead-cell fraction ([4]; 0.001 µM): 0.0006 | increase in dead-cell fraction ([4]; 0.003162 µM): 0.0004 | increase in dead-cell fraction ([4]; 0.01 µM): 0.0034 | increase in dead-cell fraction ([4]; 0.03162 µM): 0.0049 | increase in dead-cell fraction ([4]; 0.1 µM): 0.0006 | increase in dead-cell fraction ([4]; 0.3162 µM): 0.0139 | increase in dead-cell fraction ([4]; 1 µM): 0.0076 | increase in dead-cell fraction ([4]; 3.162 µM): 0.0151 | increase in dead-cell fraction ([4]; 10 µM): 0.0147 | increase in dead-cell fraction ([5]; 0.0001 µM): -0.0023 | increase in dead-cell fraction ([5]; 0.0003162 µM): 0.0009 | increase in dead-cell fraction ([5]; 0.001 µM): 0.0003 | increase in dead-cell fraction ([5]; 0.003162 µM): 0.0007 | increase in dead-cell fraction ([5]; 0.01 µM): 0.0049 | increase in dead-cell fraction ([5]; 0.03162 µM): 0.0017 | increase in dead-cell fraction ([5]; 0.1 µM): 0.0144 | increase in dead-cell fraction ([5]; 0.3162 µM): 0.257 | increase in dead-cell fraction ([5]; 1 µM): 0.183 | increase in dead-cell fraction ([6]; 0.0001 µM): 0.0003 | increase in dead-cell fraction ([6]; 0.0003162 µM): -0.0006 | increase in dead-cell fraction ([6]; 0.001 µM): -0.0004 | increase in dead-cell fraction ([6]; 0.003162 µM): 0.0012 | increase in dead-cell fraction ([6]; 0.01 µM): 0.0757 | increase in dead-cell fraction ([6]; 0.03162 µM): 0.319 | increase in dead-cell fraction ([6]; 0.1 µM): 0.272 | increase in dead-cell fraction ([6]; 0.3162 µM): 0.225 | increase in dead-cell fraction ([6]; 1 µM): 0.229 | increase in dead-cell fraction ([7]; 0.001 µM): 0.0009 | increase in dead-cell fraction ([7]; 0.003162 µM): 0.0021 | increase in dead-cell fraction ([7]; 0.01 µM): 0.0018 | increase in dead-cell fraction ([7]; 0.03162 µM): 0.0017 | increase in dead-cell fraction ([7]; 0.1 µM): 0.0038 | increase in dead-cell fraction ([7]; 0.3162 µM): 0.0034 | increase in dead-cell fraction ([7]; 1 µM): 0.008 | increase in dead-cell fraction ([7]; 3.162 µM): 0.0042 | increase in dead-cell fraction ([7]; 10 µM): 0.274 | increase in dead-cell fraction ([8]; 0.0001 µM): -0.0005 | increase in dead-cell fraction ([8]; 0.0003162 µM): 0.0028 | increase in dead-cell fraction ([8]; 0.001 µM): 0.0017 | increase in dead-cell fraction ([8]; 0.003162 µM): 0.0005 | increase in dead-cell fraction ([8]; 0.01 µM): 0.0078 | increase in dead-cell fraction ([8]; 0.03162 µM): 0.0606 | increase in dead-cell fraction ([8]; 0.1 µM): 0.196 | increase in dead-cell fraction ([8]; 0.3162 µM): 0.176 | increase in dead-cell fraction ([8]; 1 µM): 0.338 | GR value ([9]; 0.0001 µM): 0.957 GR | GR value ([9]; 0.0003162 µM): 1.06 GR | GR value ([9]; 0.001 µM): 0.957 GR | GR value ([9]; 0.003162 µM): 1.02 GR | GR value ([9]; 0.01 µM): 1.08 GR | GR value ([9]; 0.03162 µM): 0.827 GR | GR value ([9]; 0.1 µM): 0.225 GR | GR value ([9]; 0.3162 µM): -0.0791 GR | GR value ([9]; 1 µM): -0.391 GR | GR value ([10]; 0.0003162 µM): 1.04 GR | GR value ([10]; 0.001 µM): 1.02 GR | GR value ([10]; 0.003162 µM): 0.962 GR | GR value ([10]; 0.01 µM): 0.85 GR | GR value ([10]; 0.03162 µM): 0.626 GR | GR value ([10]; 0.1 µM): 0.476 GR | GR value ([10]; 0.3162 µM): 0.355 GR | GR value ([10]; 1 µM): 0.297 GR | GR value ([10]; 3.162 µM): 0.254 GR | GR value ([11]; 0.0001 µM): 1.08 GR | GR value ([11]; 0.0003162 µM): 0.929 GR | GR value ([11]; 0.001 µM): 0.872 GR | GR value ([11]; 0.003162 µM): 0.964 GR | GR value ([11]; 0.01 µM): 0.873 GR | GR value ([11]; 0.03162 µM): 0.834 GR | GR value ([11]; 0.1 µM): 0.424 GR | GR value ([11]; 0.3162 µM): -0.258 GR | GR value ([11]; 1 µM): -0.272 GR | GR value ([12]; 0.0001 µM): 1.08 GR | GR value ([12]; 0.0003162 µM): 0.931 GR | GR value ([12]; 0.001 µM): 0.926 GR | GR value ([12]; 0.003162 µM): 0.941 GR | GR value ([12]; 0.01 µM): 0.78 GR | GR value ([12]; 0.03162 µM): 0.366 GR | GR value ([12]; 0.1 µM): -0.103 GR | GR value ([12]; 0.3162 µM): -0.305 GR | GR value ([12]; 1 µM): -0.461 GR
